Measurements: patent US6977272B2, “Method for antagonizing inhibition effects of alcohol on cell adhesion” (President and Fellows of Harvard College, priority 2002, dated 2005)
Where “and” joins values, the source holds several entries; their conditions need not be identical. Identical values can stand only once. Like-named read-outs stand apart in the source and are kept apart here.

Legend:
[1] = target: T1, L1-mediated cell-cell adhesion in human L1-transfected NIH/3T3 cells (2B2-L1, 2A2-L1) (Homo sapiens, UniProt P32004); test: Cell aggregation (cell-cell adhesion) assay in ethanol-sensitive, human L1-transfected NIH/3T3 cells; type: cell-based; design: antagonist at the aqueous concentration (μM); Antagonist Activity Butanol % ± SEM; 1-alc; effect of increasing concentrations of 1-butanol on the antagonist activity (in words): dose or concentration left out as unconfirmed; conditions: for IC50: read-out: IC50 concentration (antagonist, used in FIG. 5A); for antagonist effect at higher concentrations (in words): 2 μM to 10 μM; for antagonist activity against ethanol (in words): test concentrations of FIG. 3 / Table 1; for agonist or antagonist activity (in words): at the ECEQ and at 10 times the ECEQ; for effect of increasing concentrations of 1-butanol on the antagonist activity (in words): 2 to […] mM 1-butanol, single antagonist concentration (FIG. 5A, 5B)
Description: (§1) NIH/3T3 cells were cultured at 37° C. in Dulbecco's […] Eagle medium (DMEM) (Invitrogen, Carlsbad, Calif.) supplemented with 10% normal calf serum (Intergen, Purchase, N.Y.) and 400 μg/ml G418 (Life Technologies), in an atmosphere of 90% air and 10% CO2. Three subclones were utilized in these studies: 2B2-L1, 2A2-L1 and Vec-1A5.
Cell adhesion assays were performed in the absence and presence of the compounds, listed below in Table 1. […] The aqueous concentration of each antagonist was calculated to produce membrane concentrations equivalent to 100 mM ethanol. Membrane/buffer partition coefficients (Pm/b) were obtained or calculated from published octanol/water partition coefficients.
(§2) Cells were detached by gentle agitation in calcium-free and magnesium-free PBS supplemented with 0.1 mg/ml. DNase, mechanically dissociated to obtain a single-cell suspension, and diluted to 350,000 cells/ml. One ml of the cell suspension was added per well (4.5 cm^2) to a 12-well plate. Agonists and test antagonists were added simultaneously, plates were sealed with parafilm to prevent evaporation, and the cells were gently shaken for 30 minutes at room temperature or on ice. Cells were viewed at a final magnification of 200× and each well was scored for single and adherent cells in five to six microscopic fields of view. Approximately 100 cells per field of view and 600 cells per well were counted. The percent of adherent cells was calculated for each microscopic field of view and then averaged for each well.
Agonists and antagonists were initially tested at aqueous concentrations that were calculated to produce molar membrane concentrations (˜10 mM) equivalent to those produced by an aqueous concentration of 100 mM ethanol (ECEQ).
L1-mediated cell-cell adhesion was defined as the difference in percent of adherent cells between an L1-transfected cell line (2B2-L1 or 2A2-L1) and a vector-transfected cell line (Vec-1A5).
Agonists include compounds that inhibit L1-mediated cell-cell adhesion.

[2] = test system: NIH/3T3 cells transfected with an empty vector (Vec-1A5); test: Aggregation assay on NIH/3T3 cells transfected with an empty vector (non-L1 component of cell adhesion); type: cell-based, murine; conditions: four independent assays, each compound at the concentration given in the source, control 15±1
Description: as §1, §2
Each candidate antagonist was tested at a single aqueous concentration that was calculated to produce a molar membrane concentration equivalent to that produced by a buffer solution of 100 mM ethanol (ECEQ).

[3] = obtained from a published source or calculated from published octanol/water partition coefficients (divided by five); cited from earlier work
[4] = Membrane/buffer partition coefficient (Pm/b); type: physicochemical; conditions: from Pm/b of Table 1
Description: Cell adhesion assays were performed in the absence and presence of the compounds, listed below in Table 1. […] Membrane/buffer partition coefficients (Pm/b) were obtained or calculated from published octanol/water partition coefficients. The compounds are sorted by decreasing membrane/buffer partition coefficients.
Calculations were based on membrane-buffer partition coefficients (Pm/b), which were obtained from a published source (McCreery and Hunt, 1978) or were derived by dividing the octanol/water partition coefficient by five.

[5] = target: T1, L1-mediated cell-cell adhesion in human L1-transfected NIH/3T3 cells (2B2-L1, 2A2-L1); design: antagonist at the aqueous concentration (μM); Antagonist Activity Butanol % ± SEM; 1-alc; conditions: 3-buten-1-ol alone (Wilkemeyer et al., 2000); cited from earlier work
[6] = EC50 membrane (based on calculated membrane concentrations, expressed relative to 1-pentanol), against 100 mM ethanol, calculated from the Pm/b (FIG. 3)
[7] = against 2 mM butanol, linear regression of concentration-response curves (FIG. 4), read-out: aqueous concentration that produced half maximal effect (antagonism)
[8] = approximate EC50 (against 2 mM 1-butanol), antagonist concentration used in FIG. 5B
[9] = against 2 mM butanol, not adjusted for membrane concentration

T1 sequence (P32004 whole entry): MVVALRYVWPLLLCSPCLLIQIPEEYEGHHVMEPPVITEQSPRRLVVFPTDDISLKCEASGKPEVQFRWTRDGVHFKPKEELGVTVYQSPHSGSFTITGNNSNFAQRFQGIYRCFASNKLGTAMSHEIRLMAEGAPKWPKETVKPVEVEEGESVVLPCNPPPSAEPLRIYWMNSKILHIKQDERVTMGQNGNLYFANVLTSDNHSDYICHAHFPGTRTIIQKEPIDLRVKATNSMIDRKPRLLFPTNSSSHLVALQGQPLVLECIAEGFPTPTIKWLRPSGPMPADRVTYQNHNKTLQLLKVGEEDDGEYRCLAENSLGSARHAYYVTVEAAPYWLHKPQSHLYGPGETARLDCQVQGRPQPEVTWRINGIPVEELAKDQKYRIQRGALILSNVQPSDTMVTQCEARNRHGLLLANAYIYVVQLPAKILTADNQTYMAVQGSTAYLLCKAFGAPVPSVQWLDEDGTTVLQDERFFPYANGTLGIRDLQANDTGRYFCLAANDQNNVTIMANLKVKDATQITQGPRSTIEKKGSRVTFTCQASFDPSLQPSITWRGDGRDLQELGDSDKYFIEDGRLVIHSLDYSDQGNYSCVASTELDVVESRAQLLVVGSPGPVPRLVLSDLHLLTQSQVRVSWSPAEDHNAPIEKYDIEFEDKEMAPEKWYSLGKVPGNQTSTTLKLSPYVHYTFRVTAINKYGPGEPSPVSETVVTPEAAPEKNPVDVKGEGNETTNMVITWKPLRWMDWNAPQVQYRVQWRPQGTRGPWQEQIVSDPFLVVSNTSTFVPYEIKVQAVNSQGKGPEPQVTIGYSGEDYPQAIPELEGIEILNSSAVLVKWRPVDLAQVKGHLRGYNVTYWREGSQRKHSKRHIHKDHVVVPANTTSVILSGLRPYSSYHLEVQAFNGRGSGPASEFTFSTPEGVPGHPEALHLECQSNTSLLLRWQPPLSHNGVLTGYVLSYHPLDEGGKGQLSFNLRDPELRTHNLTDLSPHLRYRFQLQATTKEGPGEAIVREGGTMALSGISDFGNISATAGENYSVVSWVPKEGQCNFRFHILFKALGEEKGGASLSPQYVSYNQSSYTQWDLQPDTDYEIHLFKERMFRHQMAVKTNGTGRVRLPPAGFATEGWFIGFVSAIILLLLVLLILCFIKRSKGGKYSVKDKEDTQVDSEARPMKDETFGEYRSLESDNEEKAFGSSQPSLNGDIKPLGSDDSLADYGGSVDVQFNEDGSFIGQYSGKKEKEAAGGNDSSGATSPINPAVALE

## 1-butanol [reference compound]
[1]; 2 mM 1-butanol (FIG. 5A)
  percent of the maximal agonist response: approximately 90%
[1]; 2 mM 1-butanol alone, n=11
  mean percent inhibition of cell adhesion: 60±5%
[2]
  mean±S.E.M. percent cell adhesion: 13±2%

## CCCCCCCCCCCCO [1-dodecanol]
[1]; [6]
  EC50: 140 µM and 28 µM
[3]
  P(m/b) membrane/buffer partition coefficient: 26979

## CCCCCCCO [1-heptanol]
[3]
  P(m/b) membrane/buffer partition coefficient: 51.4

## CCCCCCO [1-hexanol]
[1]; [7]
  EC50: 80 µM

## CCCCCCCCO [1-octanol]
[1]
  EC50: 3 µM
  IC50: 5 µM
[1]; [6]
  EC50: 98 µM
[1]; FIG. 3 and Wilkemeyer et al., 2000
  antagonist potency relative to 1-pentanol: two hundred-fold more potent
[1]; [8]
  EC50: ~5 µM
[3]
  P(m/b) membrane/buffer partition coefficient: 189
[4]
  lipid solubility relative to 1-pentanol: thirty-seven-fold more lipid soluble
[2]
  mean±S.E.M. percent cell adhesion: 12±1%

## CCCCCCCCCCCCCCCO [1-pentadecanol]
[1]
  antagonist effect at higher concentrations (in words): inactive
  agonist or antagonist activity (in words): neither agonists nor antagonists
[1]; against 100 mM ethanol
  antagonist activity against ethanol (in words): completely inactive
[1]; against 100 mM ethanol, listed as 1-Pentadecanol
  antagonist activity against ethanol (in words): no antagonist activity
[3]
  P(m/b) membrane/buffer partition coefficient: 347560

## CCCCCO [1-pentanol]
[1]
  EC50: 540 µM
  effect of increasing concentrations of 1-butanol on the antagonist activity (in words): did not eliminate the antagonist activity
[1]; [6]
  EC50: 540 µM
[1]; [7]
  EC50: 223 µM
[1]; [8]
  EC50: ~700 µM
[3]
  P(m/b) membrane/buffer partition coefficient: 5.02
[2]
  mean±S.E.M. percent cell adhesion: 16±2%

## CCCCCCCCCCCCCCO [1-tetradecanol]
[1]
  antagonist effect at higher concentrations (in words): inactive
  agonist or antagonist activity (in words): neither agonists nor antagonists
[1]; against 100 mM ethanol
  antagonist activity against ethanol (in words): only minimal antagonist activity
[3]
  P(m/b) membrane/buffer partition coefficient: 112468

## CCCCCCCCCCCCCO [1-tridecanol]
[1]
  EC50: 0.25 µM
[1]; [6]
  EC50: 1620 µM
[1]; against 100 mM ethanol (FIG. 3)
  fold less potent antagonist than C12 (1-dodecanol): approximately 25 fold
[3]
  P(m/b) membrane/buffer partition coefficient: 36394

## CCCCCCCCCCCO [1-undecanol]
[1]
  EC50: 0.03 µM
[1]; [6]
  EC50: 20 µM
[3]
  P(m/b) membrane/buffer partition coefficient: 3810

## CC(C)c1cccc(C(C)C)c1O [2,6-di-isopropyl phenol, 2,6-di-isopropylphenol, reference compound]
[3]
  P(m/b) membrane/buffer partition coefficient: 1233

## CCC(C)O (stereo not shown) [2-butanol]
[1]; 11 mM (ECEQ) 2-butanol
  antagonist activity (in words): no antagonist activity
[1]; 11 mM (ECEQ) 2-butanol alone, n=6
  percent inhibition of L1-mediated cell-cell adhesion: 63±9%

## CC=CCO [2-buten-1-ol]
[1]; 15 mM 2-buten-1-ol alone, n=10
  percent inhibition of cell adhesion: 34±4%
[1]; 15 mM 2-buten-1-ol plus 2 mM 1-butanol, n=11
  percent inhibition of cell adhesion: 35+6%
[1]; 15 mM (ECEQ) 2-buten-1-ol
  antagonism of the actions of 1-butanol and ethanol (in words): partially antagonized
  inhibition of L1-mediated cell-cell adhesion (in words): partially inhibited
[1]; 150 mM 2-buten-1-ol
  antagonism of the actions of 1-butanol or ethanol (in words): neither antagonized nor augmented
  inhibition of L1-mediated cell-cell adhesion (in words): maximally inhibited

## CCCC(C)(C)O [2-methyl-2-pentanol]
[1]
  effect of increasing concentrations of 1-butanol on the antagonist activity (in words): did not eliminate the antagonist activity
[3]
  P(m/b) membrane/buffer partition coefficient: 5.2

## CCCC(C)O (stereo not shown) [2-pentanol]
[1]
  effect of increasing concentrations of 1-butanol on the antagonist activity (in words): did not eliminate the antagonist activity
[3]
  P(m/b) membrane/buffer partition coefficient: 4.38

## C=CCCO [3-buten-1-ol]
[5]
  effect on L1-mediated cell-cell adhesion, compound alone (in words): no effect
[1]; antagonism of 1-butanol inhibition of cell-cell adhesion
  IC50: 3000 µM
[1]; read-out: approximate EC50 (against 2 mM 1-butanol), antagonist concentration used in FIG. 5B
  EC50: ~3000 µM
[3]
  P(m/b) membrane/buffer partition coefficient: 1
[2]
  mean±S.E.M. percent cell adhesion: 14±0%

## CCC(O)CC [3-pentanol]
[1]
  effect of increasing concentrations of 1-butanol on the antagonist activity (in words): eliminated the antagonist activity
[3]
  P(m/b) membrane/buffer partition coefficient: 4.69

## CC(C)CCCO [4-methyl-1-pentanol]
[1]
  effect of increasing concentrations of 1-butanol on the antagonist activity (in words): did not eliminate the antagonist activity
[1]; [7]
  EC50: 32 µM
[1]; [9]
  ratio of half-maximal aqueous concentrations versus 1-hexanol: approximately 2.5 times
  ratio of half-maximal aqueous concentrations versus 1-pentanol: approximately 7 fold
[1]; [8]
  EC50: ~40 µM
[3]
  P(m/b) membrane/buffer partition coefficient: 9.36
[2]
  mean±S.E.M. percent cell adhesion: 15±3%

## OCc1ccccc1 [benzyl alcohol]
[1]
  effect of increasing concentrations of 1-butanol on the antagonist activity (in words): eliminated the antagonist activity
[3]
  P(m/b) membrane/buffer partition coefficient: 2.52

## OC1CCCC1 [cyclopentanol]
[1]
  effect of increasing concentrations of 1-butanol on the antagonist activity (in words): eliminated the antagonist activity
[3]
  P(m/b) membrane/buffer partition coefficient: 2.24

## CC(O)C1CC1 (stereo not shown) [cyclopropylethanol]
[1]
  agonist or antagonist activity (in words): neither agonists nor antagonists
[3]
  P(m/b) membrane/buffer partition coefficient: 0.83

## C[S+](C)[O-] [dimethyl sulfoxide, reference compound]
[1]; 120 mM (1%) DMSO
  inhibition of L1-mediated cell adhesion (in words): did not inhibit
[1]
  agonist or antagonist activity (in words): neither agonists nor antagonists
[3]
  P(m/b) membrane/buffer partition coefficient: 0.012
[2]
  mean±S.E.M. percent cell adhesion: 13±0%

## CCO [ethanol, reference compound]
[1]; NIH3T3, read-out: percent inhibition of L1-mediated cell-cell adhesion
  inhibition at 100000 µM: 62 ± 7%
